ChEMBL document CHEMBL5352475, “Design, synthesis, and biological evaluation of novel glutaminase 1 allosteric inhibitors with an alkane chain tail group” (Eur J Med Chem, 2023)
≈ marks a conversion by molar mass, not a printed value.

Tests used:
[1] = target: T1, Glutaminase kidney isoform, mitochondrial (Homo sapiens, UniProt O94925); test: Inhibition of GLS1 (unknown origin) preincubated for 10 mins followed by glutamine addition measured after 60 mins
T1 sequence (O94925 whole entry): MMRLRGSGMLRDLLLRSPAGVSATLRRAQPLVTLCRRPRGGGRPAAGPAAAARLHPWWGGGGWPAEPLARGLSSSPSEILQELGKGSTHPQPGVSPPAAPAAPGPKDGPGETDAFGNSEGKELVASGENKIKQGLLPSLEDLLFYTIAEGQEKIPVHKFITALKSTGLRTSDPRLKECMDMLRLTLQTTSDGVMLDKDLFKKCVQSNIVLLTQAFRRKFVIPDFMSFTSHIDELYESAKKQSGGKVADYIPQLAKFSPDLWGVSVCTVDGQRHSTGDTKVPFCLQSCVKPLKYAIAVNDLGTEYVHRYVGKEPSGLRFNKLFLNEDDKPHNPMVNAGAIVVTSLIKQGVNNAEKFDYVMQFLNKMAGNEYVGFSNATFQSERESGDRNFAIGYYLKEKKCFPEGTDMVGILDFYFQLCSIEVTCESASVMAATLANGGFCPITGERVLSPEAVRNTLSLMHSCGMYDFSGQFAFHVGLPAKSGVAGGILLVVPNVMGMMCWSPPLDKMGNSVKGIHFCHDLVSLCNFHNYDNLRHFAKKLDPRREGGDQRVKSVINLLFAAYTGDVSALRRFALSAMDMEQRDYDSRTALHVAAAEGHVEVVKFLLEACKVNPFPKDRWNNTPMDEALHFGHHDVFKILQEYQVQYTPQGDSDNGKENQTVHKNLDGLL

HCT-116 [2] = test: cells; conditions: Homo sapiens, HCT-116, 72 h
Description: Antiproliferative activity against human HCT-116 cells incubated for 72 hrs by MTT assay

[3] = Intrinsic aqueous solubility of the compound in PBS buffer at pH 7.4 measured after 72 hrs by LC-MS analysis; type: physicochemical; conditions: read-out: Intrinsic_solubility
[4] = Metabolic stability in human liver microsomes assessed as half life by LC-MS/MS analysis; type: ADME, Microsome
[5] = Metabolic stability in human liver microsomes assessed as clearance measured upto 120 mins by LC-MS/MS analysis; type: ADME, Microsome; conditions: read-out: CLH
[6] = target: T2, Glutaminase kidney isoform, mitochondrial (Homo sapiens) (UniProt O94925)
T2 sequence (whole entry): T1 sequence (O94925 whole entry)
Description: Stabilization of GLS1 (unknown origin) assessed as change in melting temperature by protein thermal assay

HCT-116 [7] = test: Antitumor activity against human HCT-116 cells xenografted in BALB/c nude mouse assessed as tumor growth inhibition at 100 mg/kg, ip for 20 days relative to control; type: functional; conditions: Mus musculus, HCT-116, 480 h, time 20 day, read-out: TGI

`C=CCCCOc1cccc(CC(=O)Nc2ccc(CCCCc3nnc(NC(=O)CCC=C)s3)nn2)c1` showed an IC50 [1] of 79 nM and an IC50 (HCT-116 [2]) of 920 nM.
Work on `C=CCCOc1cccc(CC(=O)Nc2ccc(CCCCc3nnc(NC(=O)CCC=C)s3)nn2)c1` yielded an IC50 [1] of 87 nM and an IC50 (HCT-116 [2]) of 1370 nM.
Molecule `C#CCCC(=O)Nc1nnc(CCCCc2ccc(NC(=O)Cc3cccc(OC(=O)CCC#C)c3)nn2)s1` has an IC50 [1] of 390 nM and an IC50 (HCT-116 [2]) of 5260 nM.
`C=CCCCOc1cccc(CC(=O)Nc2nnc(CCCCc3ccc(NC(=O)CCC=C)nn3)s2)c1` showed an IC50 [1] of 36 nM and an IC50 (HCT-116 [2]) of 3700 nM.
In the case of `CCCCC(=O)Nc1nnc(CCCCc2ccc(NC(=O)Cc3cccc(OC)c3)nn2)s1`, the IC50 [1] is reported as 190 nM and the IC50 (HCT-116 [2]) is reported as 2460 nM.
In the case of `CCCCNc1cccc(CC(=O)Nc2ccc(CCCCc3nnc(NC(=O)CCCC)s3)nn2)c1`, the IC50 [1] is reported as > 20000 nM.
`C=CCCCCOc1cccc(CC(=O)Nc2ccc(CCCCc3nnc(NC(=O)CCC=C)s3)nn2)c1` gave a solubility at 72 h [3] of 3.6 µg/mL (≈ 6.56 µM), a half-life [4] of 25.1 min and a microsomal CLint [5] of 138 µL/min/mg. It also gave an IC50 [1] of 25.1 nM, a ΔTm [6] of 13.9 °C and an IC50 (HCT-116 [2]) of 310 nM.
For `C#CCCC(=O)Nc1nnc(CCCCc2ccc(NC(=O)Cc3cccc(OCCC=C)c3)nn2)s1`, the IC50 [1] was 290 nM and the IC50 (HCT-116 [2]) was 2250 nM.
Molecule `CCCCC(=O)Nc1nnc(CCCCc2ccc(NC(=O)Cc3cccc(OCC)c3)nn2)s1` has an IC50 [1] of 220 nM and an IC50 (HCT-116 [2]) of 8540 nM.
Molecule `CCCCOc1cccc(CC(=O)Nc2ccc(CCCCc3nnc(NC(=O)C4CC4)s3)nn2)c1` has a solubility at 72 h [3] of 0.71 µg/mL (≈ 1.4 µM), an IC50 [1] of 160 nM and an IC50 (HCT-116 [2]) of 2640 nM.
In the case of `CCCCCNc1cccc(CC(=O)Nc2ccc(CCCCc3nnc(NC(=O)CCCC)s3)nn2)c1`, the IC50 [1] is reported as > 20000 nM.
`CCCCCCCOc1cccc(CC(=O)Nc2ccc(CCCCc3nnc(NC(=O)CCCC)s3)nn2)c1` showed an IC50 [1] of 17 nM and an IC50 (HCT-116 [2]) of 1960 nM.
Molecule `C=CCCC(=O)Nc1nnc(CCCCc2ccc(NC(=O)Cc3cccc(OC(=O)CCC=C)c3)nn2)s1` has an IC50 [1] of 140 nM and an IC50 (HCT-116 [2]) of 7900 nM.
`CCCCC(=O)Nc1nnc(CCCCc2ccc(NC(=O)Cc3cccc(N)c3)nn2)s1` showed an IC50 [1] of 520 nM.
With `CCCCCCCCOc1cccc(CC(=O)Nc2ccc(CCCCc3nnc(NC(=O)CCCC)s3)nn2)c1` the IC50 [1] was 17 nM and the IC50 (HCT-116 [2]) was 210 nM.
With `CCCCOc1cccc(CC(=O)Nc2ccc(OC3CC4CCC(C3)N4c3nnc(NC(=O)CCCC)s3)nn2)c1` (stereo not given) the IC50 [1] was > 20000 nM and the IC50 (HCT-116 [2]) was 16900 nM.
For `CCCCCCOc1cccc(CC(=O)Nc2ccc(CCCCc3nnc(NC(=O)C4CC(F)(F)C4)s3)nn2)c1`, the solubility at 72 h [3] was 4.1 µg/mL (≈ 6.99 µM), the IC50 [1] was 24 nM and the IC50 (HCT-116 [2]) was 1230 nM.
For `CCCCCOc1cccc(CC(=O)Nc2ccc(CCCCc3nnc(NC(=O)CCCC)s3)nn2)c1`, the IC50 [1] was 24 nM and the IC50 (HCT-116 [2]) was 2180 nM.
Molecule `CCCCC(=O)Nc1nnc(CCCCc2ccc(NC(=O)Cc3cccc(OCCC)c3)nn2)s1` has an IC50 [1] of 130 nM and an IC50 (HCT-116 [2]) of 820 nM.
With `C#CCCC(=O)Nc1nnc(CCCCc2ccc(NC(=O)Cc3cccc(O)c3)nn2)s1` the IC50 [1] was 580 nM and the IC50 (HCT-116 [2]) was 3440 nM.
Molecule `CCCCOc1cccc(CC(=O)Nc2ccc(CCCCc3nnc(NC(=O)C4CC(F)(F)C4)s3)nn2)c1` has a solubility at 72 h [3] of 6.23 µg/mL (≈ 11.2 µM), an IC50 [1] of 68 nM and an IC50 (HCT-116 [2]) of 1860 nM.
Work on `C=CCCC(=O)Nc1nnc(CCCCc2ccc(NC(=O)Cc3cccc(O)c3)nn2)s1` yielded an IC50 [1] of 530 nM and an IC50 (HCT-116 [2]) of 2630 nM.
For `O=C(Cc1ccccc1)Nc1nnc(CCSCCc2nnc(NC(=O)Cc3ccccc3)s2)s1`, the inhibition in vivo at 100 mg/kg (HCT-116 [7]) was 31.3%.
In the case of `C=CCCCCOc1cccc(CC(=O)Nc2nnc(CCCCc3ccc(NC(=O)CCC=C)nn3)s2)c1`, the IC50 [1] is reported as 34 nM and the IC50 (HCT-116 [2]) is reported as 660 nM.
With `C=CCCOc1cccc(CC(=O)Nc2ccc(N3CCC(Nc4nnc(NC(=O)CCC=C)s4)CC3)nn2)c1` the half-life [4] was 68.6 min, the microsomal CLint [5] was 50.2 µL/min/mg and the IC50 [1] was 19 nM. The IC50 (HCT-116 [2]) was 430 nM.
With `C=CCCOc1cccc(CC(=O)Nc2ccc(CCCCc3nnc(NC(=O)CC=C)s3)nn2)c1` the IC50 [1] was 110 nM and the IC50 (HCT-116 [2]) was 1600 nM.
`CCCCCCOc1cccc(CC(=O)Nc2ccc(CCCCc3nnc(NC(=O)CCCC)s3)nn2)c1` showed a half-life [4] of 26 min, a microsomal CLint [5] of 134 µL/min/mg and an IC50 [1] of 19 nM. It also gave an IC50 (HCT-116 [2]) of 380 nM.
In the case of `C=CCCCCOc1cccc(CC(=O)Nc2ccc(CCCCc3nnc(NC(=O)C4CC(F)(F)C4)s3)nn2)c1`, the half-life [4] is reported as 87.8 min, the microsomal CLint [5] is reported as 39.5 µL/min/mg and the IC50 [1] is reported as 32 nM. It also gave an IC50 (HCT-116 [2]) of 1680 nM.
In the case of `C=CCCCOc1cccc(CC(=O)Nc2nnc(CCCCc3ccc(NC(=O)CC=C)nn3)s2)c1`, the IC50 [1] is reported as > 5000 nM and the IC50 (HCT-116 [2]) is reported as 29400 nM.
Work on `CCCCOc1cccc(CC(=O)Nc2ccc(CCCCc3nnc(NC(=O)CCCC)s3)nn2)c1` yielded a half-life [4] of 54.6 min, a microsomal CLint [5] of 63.5 µL/min/mg and an IC50 [1] of 27 nM. It also gave an IC50 (HCT-116 [2]) of 380 nM.
For `CCCCCCNc1cccc(CC(=O)Nc2ccc(CCCCc3nnc(NC(=O)CCCC)s3)nn2)c1`, the IC50 [1] was > 20000 nM.
In the case of `C#CCOc1cccc(CC(=O)Nc2ccc(CCCCc3nnc(NC(=O)CCCC)s3)nn2)c1`, the IC50 [1] is reported as 1050 nM and the IC50 (HCT-116 [2]) is reported as > 10000 nM.
`CCCCCOc1cccc(CC(=O)Nc2ccc(CCCCc3nnc(NC(=O)C4CC4)s3)nn2)c1` showed a solubility at 72 h [3] of 0.52 µg/mL (≈ 0.995 µM), an IC50 [1] of 36 nM and an IC50 (HCT-116 [2]) of 4030 nM.
`C=CCCOc1cccc(CC(=O)Nc2nnc(CCCCc3ccc(NC(=O)CCC=C)nn3)s2)c1` gave an IC50 [1] of 240 nM and an IC50 (HCT-116 [2]) of 1520 nM.
For `C=CCCOc1cccc(CC(=O)Nc2nnc(CCCCc3ccc(NC(=O)CC=C)nn3)s2)c1`, the IC50 [1] was > 5000 nM and the IC50 (HCT-116 [2]) was 24900 nM.
`CCCCC(=O)Nc1nnc(CCCCc2ccc(NC(=O)Cc3cccc(O)c3)nn2)s1` showed an IC50 [1] of 170 nM and an IC50 (HCT-116 [2]) of 6820 nM.
For `C=CCCCCOc1cccc(CC(=O)Nc2ccc(CCCCc3nnc(N)s3)nn2)c1`, the IC50 [1] was 280 nM and the IC50 (HCT-116 [2]) was 1090 nM.
